Assay results as given in BindingDB's records for doi:10.1021/jm060193m (Universit&#224, 2006).

Assays:
[1] = molecular target: T1, Integrase (Human immunodeficiency virus 1, UniProt Q7ZJM1); experiment: Inhibition of HIV1 integrase 3' processing activity
[2] = molecular target: T1, Integrase; experiment: Inhibition of HIV1 integrase strand transfer activity

T1 sequence (Q7ZJM1 whole entry): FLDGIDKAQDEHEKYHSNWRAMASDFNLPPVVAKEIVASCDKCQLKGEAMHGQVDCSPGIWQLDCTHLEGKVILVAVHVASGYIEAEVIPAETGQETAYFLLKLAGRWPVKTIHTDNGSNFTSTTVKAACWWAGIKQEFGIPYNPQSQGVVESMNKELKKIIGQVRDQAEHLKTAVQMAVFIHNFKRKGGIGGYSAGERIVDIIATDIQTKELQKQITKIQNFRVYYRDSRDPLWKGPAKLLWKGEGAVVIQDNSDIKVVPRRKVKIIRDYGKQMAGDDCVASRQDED

IC50 [1]: > 333 µM
IC50 [2]: > 333 µM
SMILES: COC(=O)C(=O)CC(=O)c1ccccc1
